These are literature values, as cited in US7279573B2, “Amide derivatives” (Kaken Pharmaceutical Co., Ltd., priority 1997, dated 2007).

One data set relates to growth hormone releasing. The following applies: control compounds for pharmacophore development.
For data set [1] the following is noted: human, in vivo.

Turning to `CC(C)(N)CC(=O)N[C@H]1CCc2ccccc2N(Cc2ccc(-c3ccccc3-c3nn[nH]n3)cc2)C1=O` [L-692,428], the “growth hormone releasing activity (active/inactive)” value in the data set on growth hormone releasing was “inactive”.

For the compound GHRP-6, the oral bioavailability in data set [1] is 0.3%.
